Measured values as given in patent US20100311107A1, “Ultra-High Throughput Screening of Natural Products” (priority 2004, published 2010).
Where two headings read alike, the source gives them in different places.

Tests used:
Type in all cases: cell-based, Escherichia coli
[1] = system: E. coli screening strain CM242; design: unit not given here; conditions: second Table 12, MHB medium
Description: (§1) The level of drug resistance of these screening strains (both intermediates and finals) was evaluated by standard MIC assay in MHB liquid medium and the result of Strain CM242 is summarized in Table 12.

[2] = system: E. coli screening strain DR1234; design: unit not given here
Description: (§2) The screening strain, DR1234, was established after all desired drug-resistant genes listed in Table 5 had been delivered into the parent E. coli strain, MG1655, by methods described above. Its level of drug resistance was analyzed by the standard minimum inhibitory concentration (MIC) assay in MHB liquid medium (Chantot, et al., 1986, “Antibacterial activity of roxithromycin: a laboratory evaluation,” J. Antibiot, 39(5):660-8) and the result was summarized in Table 7.

[3] = system: E. coli screening strain CM435; design: Minimal inhibitory concentrations (MIC90) CM435: unit not given here; conditions: for Minimal inhibitory concentrations (MIC90) CM435: Table 13, MHB medium; for sensitivity of CM435 according to the MIC results: MHB liquid medium
[4] = system: E. coli screening strain DR1212; design: unit not given here
Description: (§3) The level of drug-resistance of screening strain DR1212 was analyzed by standard MIC assay in MHB liquid medium and the result was summarized in Table 11. Similar to screening strains, DR1234 and CM166, DR1212 is also resistant to drugs whose resistant genes have been introduced.

E. coli MG1655 = system: E. coli MG1655; design: unit not given here
Description: as §2
(§4) The level of drug resistance of CM166 was estimated by MIC assay carried out in MHB liquid medium and the results were summarized in Table 9. CM166 is resistant to antibacterial agents whose resistant genes have been incorporated into the strain, but not to other antibacterial drugs whose resistant genes are not incorporated.
as §3, §1
(§5) The level of drug resistance of screening strains CM400 and CM435 was evaluated by standard MIC assay in MHB liquid medium and the results are summarized in Table 13. According to the MIC results, CM435 is hypersensitive to Bleomycin, Daunorucibin, Coumermycin A1 and Erythromycin. Screening strain CM435 and others, which are hypersensitive to certain types of antimicrobial agents, are advantageous in detecting bioactive compounds with low concentration in the screening system.

[5] = system: E. coli screening strain CM400; design: unit not given here; conditions: Table 13, MHB medium
Description: as §5

[6] = system: E. coli screening strain CM166; design: unit not given here; conditions: Table 9, MHB medium
Source text: as §4

| Molecule | Minimal inhibitory concentrations (MIC90) CM242 [1] | Minimal inhibitory concentrations (MIC90) DR1234 ([2]; Table 7, MHB medium) | Minimal inhibitory concentrations (MIC90) CM435 [3] | Minimal inhibitory concentrations (MIC90) DR1212 ([4]; Table 11, MHB medium) | Minimal inhibitory concentrations (MIC90) MG1655 (E. coli MG1655; Table 7, MHB medium) | Minimal inhibitory concentrations (MIC90) MG1655 (E. coli MG1655; Table 9, MHB medium) | Minimal inhibitory concentrations (MIC90) MG1655 (E. coli MG1655; Table 11, MHB medium) | Minimal inhibitory concentrations (MIC90) MG1655 (E. coli MG1655; Table 13, MHB medium) | Minimal inhibitory concentrations (MIC90) MG1655 (E. coli MG1655; second Table 12, MHB medium) | Minimal inhibitory concentrations (MIC90) CM400 [5] | Minimal inhibitory concentrations (MIC90) CM166 [6] | sensitivity of CM435 according to the MIC results [3] | Minimal inhibitory concentrations (MIC90) DR1234 [2] | Minimal inhibitory concentrations (MIC90) DR1212 [4] |
| --- | --- | --- | --- | --- | --- | --- | --- | --- | --- | --- | --- | --- | --- | --- |
| CC1(C)S[C@@H]2[C@H](NC(=O)[C@H](N)c3ccccc3)C(=O)N2[C@H]1C(=O)O [Ampicillin] | >400 | >400 | >64 | >400 | 1.6-3.2 | 1.6-3.2 | 1.6-3.2 | 8 | 1.6-3.2 | >64 | >400 |  |  |  |
| CN[C@@H]1[C@@H](O[C@H]2O[C@H](CO)[C@@H](N)[C@H](O)[C@H]2O)OC2C[C@@H](N)[C@@H](O[C@H]3[C@H](O)[C@@H](O)[C@H](N)C[C@@H]3N)OC2[C@@H]1O (stereo partly shown) [Apramycin] | 400 | 400 | >64 | 1.6 | 3.2-6.3 | 3.2-6.3 | 3.2-6.3 | 4 | 3.2-6.3 | 64 | 200 |  |  |  |
| C[C@H]1[C@H](NC(=O)/C(=N\OC(C)(C)C(=O)O)c2csc(N)n2)C(=O)N1S(=O)(=O)O [Aztreonam] | 0.3 | ≦0.05 |  | ≦0.05 | 0.1 | 0.1 | 0.1 | 0.06 | 0.1 | <0.06 | ≦0.05 |  |  |  |
| O=C(N[C@H](CO)[C@H](O)c1ccc([N+](=O)[O-])cc1)C(Cl)Cl [Chloramphenicol] | 100 | 100 | >64 | 400 | 3.2 | 3.2 | 3.2 | 8 | 3.2 | >64 | 100 |  |  |  |
| CO[C@H]1[C@H](OC(=O)c2ccc(C)[nH]2)[C@H](O)[C@@H](Oc2ccc3c(O)c(NC(=O)c4c[nH]c(C(=O)Nc5c(O)c6ccc(O[C@H]7OC(C)(C)[C@@H](OC)[C@H](OC(=O)c8ccc(C)[nH]8)[C@@H]7O)c(C)c6oc5=O)c4C)c(=O)oc3c2C)OC1(C)C [Coumermycin A1] | 6.3 | 3.2 | 4 | 3.2 | 12.5 | 12.5 | 12.5 | >64 | 12.5 | 64 | 6.3 | hypersensitive |  |  |
| NC[C@@H]1CC[C@@H](N)[C@@H](O[C@H]2[C@H](O)[C@@H](O[C@H]3O[C@H](CO)[C@@H](O)[C@H](N)[C@H]3O)[C@H](N)C[C@@H]2N)O1 [Dibekacin] | 400 |  |  |  |  |  |  |  | 3.2 |  |  |  |  |  |
| CC[C@H]1OC(=O)[C@H](C)[C@@H](O[C@H]2C[C@@](C)(OC)[C@@H](O)[C@H](C)O2)[C@H](C)[C@@H](O[C@@H]2O[C@H](C)C[C@H](N(C)C)[C@H]2O)[C@](C)(O)C[C@@H](C)C(=O)[C@H](C)[C@@H](O)[C@]1(C)O [Erythromycin] | 25 | 100 | 4 | 50 | 25 | 25 | 25 | >64 | 25 | 64 | 100 | hypersensitive |  |  |
| NC[C@H]1O[C@H](O[C@H]2[C@H](O)[C@@H](O[C@H]3O[C@H](CO)[C@@H](O)[C@H](N)[C@H]3O)[C@H](N)C[C@@H]2N)[C@H](O)[C@@H](O)[C@@H]1O [Kanamycin] | >400 |  | >64 |  |  |  |  |  |  | >64 | >400 |  | >400 | 400 |
| CCN[C@@H]1C[C@H](N)[C@@H](O[C@H]2OC(CN)=CC[C@H]2N)[C@H](O)[C@H]1O[C@H]1OC[C@](C)(O)[C@H](NC)[C@H]1O [Netilmycin] | 200 | 200 | 64 | 400 | 1.6 | 1.6 | 1.6 | 0.5 | 1.6 | >64 | 400 |  |  |  |
| CO[C@H]1/C=C/O[C@@]2(C)Oc3c(C)c(O)c4c(O)c(cc(O)c4c3C2=O)NC(=O)/C(C)=C\C=C\[C@H](C)[C@H](O)[C@@H](C)[C@@H](O)[C@@H](C)[C@H](OC(C)=O)[C@@H]1C [Rifamycin] |  |  | 16 |  |  |  |  | 16 |  | >64 |  |  |  |  |
| [H]/N=C(/N)N[C@H]1[C@H](O)[C@@H](O)[C@H](O[C@@H]2O[C@@H](C)[C@](O)(C=O)[C@H]2O[C@@H]2O[C@@H](CO)[C@H](O)[C@@H](O)[C@@H]2NC)[C@@H](N/C(N)=N\[H])[C@@H]1O [Streptomycin] | >400 | >400 | >64 | >400 | 3.2 | 3.2 | 3.2 | 4 | 3.2 | >64 | >400 |  |  |  |
| CN(C)[C@@H]1C(O)=C(C(N)=O)C(=O)[C@@]2(O)C(O)=C3C(=O)c4c(O)cccc4[C@@](C)(O)[C@H]3C[C@@H]12 [Tetracycline] | >400 |  | 64 |  | 0.4-3.2 | 0.4-3.2 | 0.4-3.2 | 2 | 0.4-3.2 | >64 | 100 |  | 100 | 100 |
| NC[C@H]1O[C@H](O[C@H]2[C@H](O)[C@@H](O[C@H]3O[C@H](CO)[C@@H](O)[C@H](N)[C@H]3O)[C@H](N)C[C@@H]2N)[C@H](N)C[C@@H]1O [Tobramycin] | 100 | 50 |  | 25 | 0.4 | 0.4 | 0.4 |  | 0.4 |  | >400 |  |  |  |
| Actinomycin C | 200 | 100 | >256 | 25.0 | 50 | 50 | 50 | 256 | 50 | >256 | 50 |  |  |  |
